Laboratory results taken from ChEMBL document CHEMBL3097992, “Comparative molecular field analysis of fenoterol derivatives interacting with an agonist-stabilized form of the β₂-adrenergic receptor” (Bioorg Med Chem, 2014).

What was measured:
[1] = biological target: T1, Beta-2 adrenergic receptor (Homo sapiens, UniProt P07550); assay: Displacement of [3H]-(R,R')-methoxyfenoterol from human beta2 adrenergic receptor expressed in HEK cells by liquid scintillation counting analysis; type: cell-based, HEK293
T1 sequence (P07550 whole entry): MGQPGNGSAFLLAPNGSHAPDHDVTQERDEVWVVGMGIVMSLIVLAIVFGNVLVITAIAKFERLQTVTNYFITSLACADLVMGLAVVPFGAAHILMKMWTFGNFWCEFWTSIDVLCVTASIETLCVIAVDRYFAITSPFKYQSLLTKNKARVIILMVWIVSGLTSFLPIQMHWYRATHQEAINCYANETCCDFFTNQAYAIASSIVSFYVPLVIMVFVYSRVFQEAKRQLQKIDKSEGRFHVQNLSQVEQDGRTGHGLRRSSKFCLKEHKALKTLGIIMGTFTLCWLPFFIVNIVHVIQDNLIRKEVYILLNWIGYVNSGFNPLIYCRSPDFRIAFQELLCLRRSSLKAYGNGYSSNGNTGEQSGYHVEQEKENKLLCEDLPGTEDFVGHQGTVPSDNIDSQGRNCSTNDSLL

[2] = biological target: T1, Beta-2 adrenergic receptor; assay: Agonist activity at human beta2 adrenergic receptor expressed in HEK293 cells assessed as stimulation of cAMP accumulation; type: functional, cell-based
[3] = biological target: T1, Beta-2 adrenergic receptor; assay: Displacement of [3H]-CGP-12177 from human beta2 adrenergic receptor expressed in HEK cells by liquid scintillation counting analysis; type: cell-based, HEK293

Row | SMILES | Ki [1] [µM] | EC50 [2] [µM] | Ki [3] [µM]
1 | CC[C@H](Cc1ccc(O)cc1)NC[C@H](O)c1cc(O)cc(O)c1 | 0.0391 |  | 
2 | CC[C@@H](Cc1ccc(O)cc1)NC[C@H](O)c1cc(O)cc(O)c1 | 0.294 |  | 
3 | CC[C@H](Cc1ccc(OC)cc1)NC[C@H](O)c1cc(O)cc(O)c1 | 0.0357 | 0.00163 | 0.42
4 | CC[C@@H](Cc1ccc(OC)cc1)NC[C@H](O)c1cc(O)cc(O)c1 | 4.3 | 1.01 | 20.1
5 | COc1ccc(C[C@H](NC[C@H](O)c2cc(O)cc(O)c2)C(C)C)cc1 | 29.2 | 26.2 | > 100
6 | COc1ccc(C[C@@H](NC[C@H](O)c2cc(O)cc(O)c2)C(C)C)cc1 | 3.42 | 6.1 | > 100
